Source: paper PMC12866179, “Oxidized MIF is an Alzheimer’s disease drug target relaying external risk factors to tau pathology” (Cell Reports Medicine, 2025)

Key:
[1] = type: in vivo; conditions: compared with PAV-174
Description: (§1) Figure S5. PAV-17 4 decreases ta u phosphorylation and aggr e gat ion in vi v o. Rel a ted to […]
(§2) (A) MTD (Maximum Tol erated Dose) assessment of PAV com pounds in BALB/c mice. BALB/c mice we re dosed through int ra pe rit o ne al (IP ) ro ute at di ff e ren t doses as pe r bo dy we igh t of an ima ls an d mice we re obser ved at di ff e ren t time interval for toxic signs till 48 h, PD (Post dose) . MTD at wa s declared at NOAEL (No-obser ved-adver se-effect level) conc. of PAV […]
(§3) (B) PAV-61 7 dose- an d MIF-de pe nd en t ly reduces tau phosphorylati on (A T8) . SH-SY5Y-P301S-control or -MIF-knockdown cel ls we re treated with the indicated concentrations of PAV- […]
(§4) cel ls. The di ag ram s show the signals of AT8 normalized to total tau (HT7 ) from six (n =6) in de pe nd en t exper iments. One-wa y ANOVA (Sidak´s post-hoc)
(§5) (C) Pharmacokinetic assessment of PAV-61 7 in Sprague Da wley ra ts (S D). Ma le SD ra ts (n=4) we re dosed via three ro utes na me ly intravenous (IV )- 1 mg/kg, (IP )- 5 mg/kg an d per ora l (P O)- 5 mg/kg. Plasma concentration wa s anal yzed at di ff e ren t time intervals. Pharmacokinetic pa ra met e rs we re de t erm ine d usi ng Win No nlin . Cma x (p ea k pl asma concentration) achieved through IV wa s 12 8 ng / mL, IP wa s 36 2. 6 ng / mL an d PO wa s 15 1. 1 ng / mL at Tmax (time of pe ak concentration obser ved) 1 h, 0. 5 h an d 4 h respectively. […]

[2] = set-up: species or system SD rats; conditions: rat, in vivo, ip, 5 mg/kg
Description: as §1, §2, §3, §4, §5

[3] = target: T1, recombinant wild-type MIF (Homo sapiens, UniProt P14174); experiment: 15N-HSQC NMR binding to recombinant wild-type MIF
T1 construct: made in house; host or cells: E. coli BL21-(DE3)-Rosetta-pLysS, pET11a-MIF (15N/13C-labelled for NMR)
T1 sequence (P14174 2-115 limits assumed): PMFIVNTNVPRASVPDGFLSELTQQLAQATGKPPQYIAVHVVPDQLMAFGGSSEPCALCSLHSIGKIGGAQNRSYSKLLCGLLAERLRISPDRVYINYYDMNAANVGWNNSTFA
Description: The NMR F1-[^13C,^15N]-filtered-[^1H,^1H]-NOESY spectra for structure calculation were recorded on a 700 MHz Bruker Avance Neo spectrometer equipped with cryoprobe, and the ^15N-HSQC were recorded on a 600 MHz Bruker Avance III spectrometer equipped with cryoprobe. The filtered NOESY were recorded for MIF 1.0 mM and saturation of PAV-174, i.e., 1.0 mM of PAV-174. at 310K to reduce the rotational correlation time of the system, with two different mixing times 60 and 100ms; the free induction decay was measured for 106ms (2048 points) and the indirect dimension was set to 20ms (400 points); the signal acquisition was performed with 160 scans and the interscan delay was set to 1.5s. The ^15N-HSQC were measured at 298K with 121ms (2048 points) in the direct dimension and 53 ms (256 points) in the indirect dimension; the signal acquisition was performed through the accumulation of 16 scans and an interscan delay of 1s was applied. The cross-peaks corresponding to ligand-proteins were used to derive ligand-protein distant restraints using the initial rates of the normalized NOE intensity build-up curves.[91] […] The intermolecular distance restraints were kept semiambiguous, i.e., only the ligand signals were assigned, and the MIF- PAV-174 complex was calculated with the NMR^2 software[92] using the CYANA software for tortion angle dynamics structure calculation.

Akt = Akt phosphorylation (Ser473) in SH-SY5Y-tau-P301S cells, immunoblot; type: cell-based, human; conditions: dose-dependent and MIF-dependent
Description: After the protein concentration of cell lysates and homogenates had been determined using the DC Protein Assay Kit (Bio-Rad), 20 μg of each sample were dissolved in NuPAGE LDS Sample buffer (including 2% β-mercaptoethanol), boiled at 100°C for 5 min and then separated on NuPAGE Novex 4–12% Bis-Tris midi gels (Invitrogen) using NuPAGE MES SDS Running buffer (Invitrogen). Proteins were then transferred to a 0.2 μm nitrocellulose membrane (Amersham) in 24 mM Tris/192 mM glycine/20% MeOH at 400 mA for 2h using a tank blot system (Bio-Rad). In order to detect any blotting artifacts, the proteins on the membranes were visualized with Ponceau S (Sigma). The membranes were destained with PBS and then blocked with PBS/5% nonfat milk (Oxoid) for 1h at RT. Incubations with primary antibodies (diluted 1:1,000) in PBS-T were carried out overnight at 4°C. Then the membranes were washed three times with PBS-T for 10 min and afterward incubated with fluorescent secondary antibodies (IR Dye 680 or 800: Li-COR Biosciences.) diluted 1:20,000 in PBS-T for 1h at RT. Following three washing steps with PBS-T for 10 min each, the membranes were scanned using an LI-COR Odyssey CLX. Signal intensities were calculated using the Image Studio Version 2.1 software (LI-COR Biosciences). Blots were reused for staining with additional primary antibodies following the same procedure.

Row | Compound | toxicity in mice [1] | tissue penetration [2] | binding to recombinant wild-type MIF (15N-HSQC spectra) [3] | phosphorylation of Akt at Ser473 (Akt)
1 | [I-].c1cc2nc3ccc(N4CCCC4)cc3[s+]c2cc1N1CCCC1 [PAV-617, 3,7-Di(pyrrolidine-1-yl)phenothiazine-5-ium iodide] | less toxic in mice | good tissue penetration, including the brain | – | –
2 | CCc1cc(N2CCCC2)cc2[s+]c3cc(N4CCCC4)cc(C)c3nc12.[I-] [PAV-174, 3,7-Di(pyrrolidine-1-yl) 1-ethyl-9-methyl-phenothiazin-5-ium iodide] | – | – | specific binding | increased
